Experiments:
[1] = system: LNCap human prostate cancer cell lines; assay: MTT survival rate of LNCap cells stimulated by testosterone; format: cell-based
Experimental: In one embodiment, LNCap human prostate cancer cell lines (BCRC 60088) purchased from Bioresource Collection and Research Center (BCRC) are used. 2×10^4 LNCap cells/well are placed in the 96-well plate and cultured for 24 hr. LNCap cells treated with testosterone and various concentrations (0.5 mg/mL and 2.0 mg/mL) of the banana flower extract, and co-cultured for 3 days. LNCap cells are treated with the banana flower extract without testosterone as negative control, and LNCap cells are treated with testosterone without the banana flower extract as vehicle control. The survival rate of LNCap cells is evaluated using the MTT assay, LNCap cells are treated with 1 mg/mL MTT (3-[4,5-dimethyl thiazol-2-yl]-2,5diphenyl tetrazolium bromide) for 2 hr, and dimethyl sulfoxide (DMSO) is added to dissolve blue formazan crystals. An absorbance is measured using a reader at the wavelength of 570 nm.

[2] = system: dihydrotestosterone synthesis in LNCap cells; assay: Dihydrotestosterone level (ELISA) in LNCap cells stimulated by testosterone; format: cell-based, human; conditions: co-treatment of testosterone and 0.2 mg/mL finasteride; testosterone alone = 100%
Experimental: 1×10^5 LNCap cells/well are cultured with RPMI 1640 containing 10% FBS and 1% sodium pyruvate in 9-cm culture plate for 36 hr. […] And all LNCap cells are stimulated by 10 μg/mL testosterone.
Cell lysis is processed prior to analysis of dihydrotestosterone level: LNCap cells are dispersed with typsin and centrifuged to collect the suspension cells, the suspension cells are washed with cold PBS, and the suspension cells are resuspended in PBS(1×) and sonicated 4 times; or LNCap cells are frozen at −20° C. or lower, and stirred frequently until thawed for 3 times to destroy cells. The destroyed cells are centrifuged at 150× g at 2-8° C. for 10 min to remove the cell debris. Finally, dihydrotestosterone ELISA Kit (Uscn Life science Inc.) is used to detect dihydrotestosterone level.
LNCap cells are treated with the banana flower extract of the present invention and testosterone as above-mentioned method, LNCap cells treated with the banana flower extract without testosterone as negative control, and LNCap cells treated with testosterone without the banana flower extract as vehicle control, are detected dihydrotestosterone level. […] As co-treating with testosterone and the banana flower extract (2 mg/mL), the dihydrotestosterone synthesis rate of LNcap cells is decreased about 30%. […]

| SMILES | LNcap cell proliferation stimulated by testosterone ([1]; co-treatment of testosterone and 0.2 mg/mL finasteride) | reduction of dihydrotestosterone synthesis rate [2] [%] | survival rate of LNcap cells ([1]; testosterone alone, without testosterone = 100%) |
| --- | --- | --- | --- |
| CC(C)(C)NC(=O)[C@H]1CC[C@H]2[C@@H]3CC[C@H]4NC(=O)C=C[C@]4(C)[C@H]3CC[C@]12C [finasteride] | slightly inhibit | 10 |  |
| C[C@]12CC[C@H]3[C@@H](CCC4=CC(=O)CC[C@@]43C)[C@@H]1CC[C@@H]2O [testosterone] |  |  | about 110% |

— US9968646B2, “Method for treatment of prostatic hyperplasia and/or ameliorating urinary disturbance with banana flower extract” (TCI Co., Ltd., priority 2014, dated 2018)
